In US8415351B2 (priority 2007, dated 2013):
pEC50: −log10 of the molar value.

What was measured:
[1] = tested on: genotype 1b-Con1 subgenomic replicon cell line; assay: microbe, parasite or virus in culture; format: cell-based, HCV; details: Hepatitis C virus, read-out: EC50 1b
[2] = tested on: genotype 1a-H77 subgenomic replicon cell line; assay: microbe, parasite or virus in culture; format: cell-based, HCV; details: Hepatitis C virus, read-out: EC50 1a

COC(=O)C(C)(C)c1cc(-n2ccc(=O)[nH]c2=O)cc(-c2ccc3cc(NS(C)(=O)=O)ccc3c2)c1OC [IB-L0-2.70, methyl 2-(5-(2,4-dioxo-3,4-dihydropyrimidin-1(2H)-yl)-2-methoxy-3-(6-(methylsulfonamido)naphthalen-2-yl)phenyl)-2-methylpropanoate]
pEC50 [1]: 6.00 to 7.00
pEC50 [2]: < 6.00

COc1c(-c2nc3ccc(NS(C)(=O)=O)cc3s2)cc(N2CCC(=O)NC2=O)cc1C(C)(C)C [IA-L0-2.2, N-(2-(3-tert-butyl-5-(2,4-dioxotetrahydropyrimidin-1(2H)-yl)-2-methoxyphenyl)benzo[d]thiazol-6-yl)methanesulfonamide]
pEC50 [1]: 7.00 to 8.00
pEC50 [2]: 6.00 to 7.00

COc1c(/C=C(\Cl)c2ccc(NS(C)(=O)=O)cc2)cc(N2CCC(=O)NC2=O)cc1C(C)(C)C [IA-L1-1.3, (Z)—N-(4-(2-(3-tert-butyl-5-(2,4-dioxotetrahydropyrimidin-1(2H)-yl)-2-methoxyphenyl)-1-chlorovinyl)phenyl)methanesulfonamide]
pEC50 [1]: > 8.00
pEC50 [2]: 7.00 to 8.00

CCOC(=O)c1cc(NS(C)(=O)=O)ccc1/C=C/c1cc(-n2ccc(=O)[nH]c2=O)cc(C(C)(C)C)c1OC [IB-L1-1.11, 2-{(E)-2-[3-tert-Butyl-5-(2,4-dioxo-3,4-dihydro-2H-pyrimidin-1-yl)-2-methoxy-phenyl]-vinyl}-5-methanesulfonylamino-benzoic acid ethyl ester]
pEC50 [1]: > 8.00
pEC50 [2]: 7.00 to 8.00

COc1c(I)cc(-n2ccc(=O)[nH]c2=O)cc1/C=C/c1ccc(NS(C)(=O)=O)cc1 [IB-L1-1.51, (E)-N-(4-(5-(2,4-dioxo-3,4-dihydropyrimidin-1(2H)-yl)-3-iodo-2-methoxystyryl)phenyl)methanesulfonamide]
pEC50 [1]: 7.00 to 8.00
pEC50 [2]: < 6.00

COc1c(/C=C/c2ccc(NS(C)(=O)=O)cc2-c2ncc[nH]2)cc(-n2ccc(=O)[nH]c2=O)cc1C(C)(C)C [IB-L1-1.16, (E)-N-(4-(3-tert-butyl-5-(2,4-dioxo-3,4-dihydropyrimidin-1(2H)-yl)-2-methoxystyryl)-3-(1H-imidazol-2-yl)phenyl)methanesulfonamide]
pEC50 [1]: 7.00 to 8.00
pEC50 [2]: 6.00 to 7.00

COc1c(-c2nc3cc(NS(C)(=O)=O)ccc3[nH]2)cc(N2CCC(=O)NC2=O)cc1C(C)(C)C [IA-L0-2.1, N-(2-(3-tert-butyl-5-(2,4-dioxotetrahydropyrimidin-1(2H)-yl)-2-methoxyphenyl)-1H-benzo[d]imidazol-5-yl)methanesulfonamide]
pEC50 [1]: < 6.00
pEC50 [2]: < 6.00

COc1c(CCc2ccc(NS(C)(=O)=O)cc2)cc(N2CCC(=O)NC2=O)cc1C(C)(C)C [IA-L5-2-1.1, N-(4-(3-tert-butyl-5-(2,4-dioxotetrahydropyrimidin-1(2H)-yl)-2-methoxyphenethyl)phenyl)methanesulfonamide]
pEC50 [1]: 7.00 to 8.00
pEC50 [2]: 6.00 to 7.00

COc1ccc(/C=C/c2cc(N3CCC(=O)NC3=O)cc(C(C)(C)C)c2OC)cc1 [IA-L1-1.14, (E)-1-(3-tert-butyl-4-methoxy-5-(4-methoxystyryl)phenyl) dihydropyrimidine-2,4(1H,3H)-dione]
pEC50 [1]: < 6.00
pEC50 [2]: < 6.00

COc1c(/C=C\c2ccc(NS(C)(=O)=O)cc2)cc(-n2ccc(=O)[nH]c2=O)cc1C(C)(C)C [IB-L1-1.34, N-(4-{(Z)-2-[3-tert-Butyl-5-(2,4-dioxo-3,4-dihydro-2H-pyrimidin-1-yl)-2-methoxy-phenyl]-vinyl}-phenyl)-methanesulfonamide]
pEC50 [1]: > 8.00
pEC50 [2]: 7.00 to 8.00

COc1c(-c2nc3ccc([N+](=O)[O-])cc3o2)cc(N2CCC(=O)NC2=O)cc1C(C)(C)C [IA-L0-2.6, 1-(3-tert-butyl-4-methoxy-5-(6-nitrobenzo[d]oxazol-2-yl)phenyl) dihydropyrimidine-2,4(1H,3H)-dione]
pEC50 [1]: < 6.00
pEC50 [2]: < 6.00

COc1c(-c2cccc(Cl)c2)cc(-n2ccc(=O)[nH]c2=O)cc1-c1ccc2cc(NS(C)(=O)=O)ccc2c1 [IB-L0-2.74, N-(6-(3′-chloro-5-(2,4-dioxo-3,4-dihydropyrimidin-1(2H)-yl)-2-methoxybiphenyl-3-yl)naphthalen-2-yl)methanesulfonamide]
pEC50 [1]: 6.00 to 7.00
pEC50 [2]: < 6.00

COc1c(/C=C/c2ccc(F)cc2)cc(N2CCC(=O)NC2=O)cc1C(C)(C)C [IA-L1-1.12, (E)-1-(3-tert-butyl-5-(4-fluorostyryl)-4-methoxyphenyl) dihydropyrimidine-2,4(1H,3H)-dione]
pEC50 [1]: 6.00 to 7.00
pEC50 [2]: 6.00 to 7.00

COc1c(/C=C/c2ccc(NS(C)(=O)=O)c(F)c2)cc(-n2ccc(=O)[nH]c2=O)cc1C(C)(C)C [IB-L1-1.5, (E)-N-(4-(3-tert-butyl-5-(2,4-dioxo-3,4-dihydropyrimidin-1(2H)-yl)-2-methoxystyryl)-2-fluorophenyl)methanesulfonamide]
pEC50 [1]: > 8.00
pEC50 [2]: 7.00 to 8.00

COc1c(-c2ccc3c(c2)CC=C3C(C)(C)NS(C)(=O)=O)cc(-n2ccc(=O)[nH]c2=O)cc1C(C)(C)C [IB-L0-2.41, N-(2-(6-(3-tert-butyl-5-(2,4-dioxo-3,4-dihydropyrimidin-1(2H)-yl)-2-methoxyphenyl)-1H-inden-3-yl)propan-2-yl)methanesulfonamide]
pEC50 [1]: 6.00 to 7.00
pEC50 [2]: 6.00 to 7.00

COc1c(-c2ccc3c(CNS(C)(=O)=O)noc3c2)cc(-n2ccc(=O)[nH]c2=O)cc1C(C)(C)C [IB-L0-2.45, N-((6-(3-tert-butyl-5-(2,4-dioxo-3,4-dihydropyrimidin-1(2H)-yl)-2-methoxyphenyl)benzo[d]isoxazol-3-yl)methyl)methanesulfonamide]
pEC50 [1]: 6.00 to 7.00
pEC50 [2]: < 6.00

COC(=O)c1cc(-n2ccc(=O)[nH]c2=O)cc(-c2ccc3cc(NS(C)(=O)=O)ccc3c2)c1OC [IB-L0-2.72, methyl 5-(2,4-dioxo-3,4-dihydropyrimidin-1(2H)-yl)-2-methoxy-3-(6-(methylsulfonamido)naphthalen-2-yl)benzoate]
pEC50 [1]: 6.00 to 7.00
pEC50 [2]: < 6.00

COc1c(Br)cc(-n2ccc(=O)[nH]c2=O)cc1/C=C/c1ccc(NS(C)(=O)=O)cc1 [IB-L1-1.52, (E)-N-(4-(3-bromo-5-(2,4-dioxo-3,4-dihydropyrimidin-1(2H)-yl)-2-methoxystyryl)phenyl)methanesulfonamide]
pEC50 [1]: 6.00 to 7.00
pEC50 [2]: < 6.00

COc1c(CCc2ccc(NS(C)(=O)=O)cc2)cc(-n2ccc(=O)[nH]c2=O)cc1C(C)(C)C [IB-L5-2-1.2, N-(4-(3-tert-butyl-5-(2,4-dioxo-3,4-dihydropyrimidin-1(2H)-yl)-2-methoxyphenethyl)phenyl)methanesulfonamide]
pEC50 [1]: 7.00 to 8.00
pEC50 [2]: 6.00 to 7.00

COc1c(/C=C/c2ccc(NS(C)(=O)=O)cc2)cc(-n2ccc(=O)[nH]c2=O)cc1-c1cccs1 [IB-L1-1.48, (E)-N-(4-(5-(2,4-dioxo-3,4-dihydropyrimidin-1(2H)-yl)-2-methoxy-3-(thiophen-2-yl)styryl)phenyl)methanesulfonamide]
pEC50 [1]: > 8.00
pEC50 [2]: 6.00 to 7.00

COCc1cc(NS(C)(=O)=O)ccc1/C=C/c1cc(-n2ccc(=O)[nH]c2=O)cc(C(C)(C)C)c1OC [IB-L1-1.13, (E)-N-(4-(3-tert-butyl-5-(2,4-dioxo-3,4-dihydropyrimidin-1(2H)-yl)-2-methoxystyryl)-3-(methoxymethyl)phenyl)methanesulfonamide]
pEC50 [1]: > 8.00
pEC50 [2]: 7.00 to 8.00

COc1c(/C=C/c2ccc(NS(C)(=O)=O)cc2CN2CCCC2)cc(-n2ccc(=O)[nH]c2=O)cc1C(C)(C)C [IB-L1-1.33, N-(4-{(E)-2-[3-tert-Butyl-5-(2,4-dioxo-3,4-dihydro-2H-pyrimidin-1-yl)-2-methoxy-phenyl]-vinyl}-3-pyrrolidin-1-ylmethyl-phenyl)-methanesulfonamide]
pEC50 [1]: 7.00 to 8.00
pEC50 [2]: 6.00 to 7.00

COC(=O)c1cc(NS(C)(=O)=O)ccc1/C=C/c1cc(-n2ccc(=O)[nH]c2=O)cc(C(C)(C)C)c1OC [IB-L1-1.7, (K)-methyl 2-(3-tert-butyl-5-(2,4-dioxo-3,4-dihydropyrimidin-1(2H)-yl)-2-methoxystyryl)-5-(methylsulfonamido)benzoate]
pEC50 [1]: > 8.00
pEC50 [2]: > 8.00

CO/N=C/c1cc(NS(C)(=O)=O)ccc1/C=C/c1cc(-n2ccc(=O)[nH]c2=O)cc(C(C)(C)C)c1OC [IB-L1-1.19]
pEC50 [1]: > 8.00
pEC50 [2]: 7.00 to 8.00

COc1c(-c2ccc3c(c2)/C(=N/NS(C)(=O)=O)CC3)cc(-n2ccc(=O)[nH]c2=O)cc1-c1ccco1 [IB-L0-2.55, (E)-N′-(6-(5-(2,4-dioxo-3,4-dihydropyrimidin-1(2H)-yl)-3-(furan-2-yl)-2-methoxyphenyl)-2,3-dihydro-1H-inden-1-ylidene)methanesulfonohydrazide]
pEC50 [1]: > 8.00
pEC50 [2]: 7.00 to 8.00

COc1c(/C=C/c2ccc(NS(C)(=O)=O)cc2)cc(-n2cc(Cl)c(=O)[nH]c2=O)cc1C(C)(C)C [IB-L1-1.20, N-(4-{(E)-2-[3-tert-butyl-5-(5-chloro-2,4-dioxo-3,4-dihydro-2H-pyrimidin-1-yl)-2-methoxy-phenyl]-vinyl}-phenyl)-methanesulfonamide]
pEC50 [1]: > 8.00
pEC50 [2]: 7.00 to 8.00

COc1c(-c2nc3ccccc3s2)cc(N2CCC(=O)NC2=O)cc1C(C)(C)C [IA-L0-2.3, 1-(3-(benzo[d]thiazol-2-yl)-5-tert-butyl-4-methoxyphenyl)dihydro pyrimidine-2,4(1H,3H)-dione]
pEC50 [1]: 6.00 to 7.00
pEC50 [2]: 6.00 to 7.00

COc1c(-c2ccc3cc(NS(C)(=O)=O)ccc3c2)cc(N2CCC(=O)NC2=O)cc1C(C)(C)C [IA-L0-2.9, N-(6-(3-tert-butyl-5-(2,4-dioxotetrahydropyrimidin-1(2H)-yl)-2-methoxyphenyl)naphthalen-2-yl)methanesulfonamide]
pEC50 [1]: > 8.00
pEC50 [2]: > 8.00

COc1c(N2Cc3ccc(NS(C)(=O)=O)cc3C2)cc(-n2ccc(=O)[nH]c2=O)cc1C(C)(C)C [IB-L0-2.79, N-(2-(3-tert-butyl-5-(2,4-dioxo-3,4-dihydropyrimidin-1(2H)-yl)-2-methoxyphenyl)isoindolin-5-yl)methanesulfonamide]
pEC50 [1]: 6.00 to 7.00
pEC50 [2]: 6.00 to 7.00
